pIC50: −log10 of the molar value.
What was measured:
[1] = target: T1, Retinoic acid receptor alpha (Homo sapiens, UniProt P10276); assay: Displacement of radioligand from RARalpha receptor
T1 sequence (P10276 whole entry): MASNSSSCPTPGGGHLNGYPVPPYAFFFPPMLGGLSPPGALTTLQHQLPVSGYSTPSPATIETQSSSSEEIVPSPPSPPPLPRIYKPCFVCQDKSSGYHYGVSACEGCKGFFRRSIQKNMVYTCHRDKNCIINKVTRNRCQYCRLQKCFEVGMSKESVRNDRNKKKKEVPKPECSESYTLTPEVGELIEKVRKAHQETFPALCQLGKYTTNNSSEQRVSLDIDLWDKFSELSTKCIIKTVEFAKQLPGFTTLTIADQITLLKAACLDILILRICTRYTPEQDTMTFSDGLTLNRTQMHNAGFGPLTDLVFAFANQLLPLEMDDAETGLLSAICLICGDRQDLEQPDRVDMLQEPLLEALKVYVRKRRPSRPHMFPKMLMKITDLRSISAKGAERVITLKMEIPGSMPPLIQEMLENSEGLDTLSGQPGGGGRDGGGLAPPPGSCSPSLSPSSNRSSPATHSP

[2] = target: T2, Retinoic acid receptor beta (Homo sapiens, UniProt P10826); assay: Displacement of radioligand from RARbeta receptor
T2 sequence (P10826 whole entry): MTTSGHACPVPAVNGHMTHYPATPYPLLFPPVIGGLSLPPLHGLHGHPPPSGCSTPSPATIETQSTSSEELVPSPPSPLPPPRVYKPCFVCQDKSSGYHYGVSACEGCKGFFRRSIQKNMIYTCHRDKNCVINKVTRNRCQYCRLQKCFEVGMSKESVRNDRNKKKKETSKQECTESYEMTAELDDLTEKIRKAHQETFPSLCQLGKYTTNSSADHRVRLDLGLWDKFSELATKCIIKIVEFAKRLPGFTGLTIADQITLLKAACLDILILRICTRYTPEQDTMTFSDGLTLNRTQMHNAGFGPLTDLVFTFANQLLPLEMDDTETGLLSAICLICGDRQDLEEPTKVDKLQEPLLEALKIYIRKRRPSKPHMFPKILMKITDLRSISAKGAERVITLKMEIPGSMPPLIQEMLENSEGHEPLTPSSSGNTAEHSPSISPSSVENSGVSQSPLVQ

[3] = target: T3, Retinoic acid receptor gamma (Homo sapiens, UniProt P13631); assay: Displacement of radioligand from RARgamma receptor
T3 sequence (P13631 whole entry): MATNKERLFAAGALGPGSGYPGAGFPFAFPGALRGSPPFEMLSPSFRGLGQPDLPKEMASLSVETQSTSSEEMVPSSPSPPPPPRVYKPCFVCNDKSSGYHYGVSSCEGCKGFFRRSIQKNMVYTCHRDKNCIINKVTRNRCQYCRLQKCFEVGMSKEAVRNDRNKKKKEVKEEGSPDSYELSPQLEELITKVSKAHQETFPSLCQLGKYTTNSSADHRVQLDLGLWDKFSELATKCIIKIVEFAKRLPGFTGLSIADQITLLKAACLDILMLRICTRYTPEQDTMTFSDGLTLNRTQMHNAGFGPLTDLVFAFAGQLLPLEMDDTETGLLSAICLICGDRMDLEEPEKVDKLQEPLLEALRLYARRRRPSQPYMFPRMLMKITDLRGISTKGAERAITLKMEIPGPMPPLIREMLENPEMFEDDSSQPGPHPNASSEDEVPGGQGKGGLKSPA

`CC(=C\c1coc2cc3c(cc2c1=O)C(C)(C)CCC3(C)C)/C=C(\C)C(=O)O` was tested, and the pIC50 [1] was 7.82, the pIC50 [2] was 7.40 and the pIC50 [3] was 7.40.

From ChEMBL document CHEMBL1152352, “Identification of a chromone-based retinoid containing a polyolefinic side chain via facile synthetic routes” (Bioorg Med Chem Lett, 2009)
